Reference: PubChem BioAssay (NCI)
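Results reflect a 48-hour exposure of cells in 96-well plates to compound at five concentrations. The concentration for 50% growth inhibition is given as GI50. At the TGI there is no net growth.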

Experiments:
Assay in all cases: NCI tumour cell line growth inhibition, 48 h
HL-60(TB) leukemia = system: HL-60(TB) leukemia
COLO 205 colon = system: COLO 205 colon
HOP-92 NSCLC = system: HOP-92 NSCLC
OVCAR-8 ovarian = system: OVCAR-8 ovarian
OVCAR-5 ovarian = system: OVCAR-5 ovarian
HT29 colon = system: HT29 colon
SW-620 colon = system: SW-620 colon
RPMI-8226 leukemia = system: RPMI-8226 leukemia
CAKI-1 renal = system: CAKI-1 renal
MALME-3M melanoma = system: MALME-3M melanoma

## COc1cccc(-c2nc(-c3cnccn3)n(Cc3ccccc3)n2)c1
HL-60(TB) leukemia
  TGI: > 100 µM
COLO 205 colon
  TGI: > 100 µM
HOP-92 NSCLC
  TGI: 81.1 µM
OVCAR-8 ovarian
  TGI: > 100 µM
OVCAR-5 ovarian
  TGI: > 100 µM
HT29 colon
  TGI: > 100 µM
SW-620 colon
  TGI: > 100 µM
RPMI-8226 leukemia
  TGI: > 100 µM

## COc1ccc(/C=C(/C(=O)O)c2cc(OC)c(OC)c(OC)c2)cc1
COLO 205 colon
  TGI: > 100 µM
CAKI-1 renal
  TGI: > 100 µM
HOP-92 NSCLC
  TGI: > 100 µM
OVCAR-8 ovarian
  TGI: > 100 µM
OVCAR-5 ovarian
  TGI: > 100 µM
HT29 colon
  TGI: > 100 µM
SW-620 colon
  TGI: > 100 µM
RPMI-8226 leukemia
  TGI: > 100 µM
MALME-3M melanoma
  TGI: > 100 µM

## CC(=O)OCCc1cccnc1/C=N/O
HL-60(TB) leukemia
  TGI: > 100 µM
COLO 205 colon
  TGI: > 100 µM
CAKI-1 renal
  TGI: > 100 µM
HOP-92 NSCLC
  TGI: > 100 µM
OVCAR-8 ovarian
  TGI: > 100 µM
OVCAR-5 ovarian
  TGI: > 100 µM
HT29 colon
  TGI: > 100 µM
SW-620 colon
  TGI: > 100 µM
MALME-3M melanoma
  TGI: > 100 µM

## O=C(/C=C/c1cccs1)c1ccc(Cl)cc1
HL-60(TB) leukemia
  TGI: 70.5 µM
COLO 205 colon
  TGI: > 100 µM
OVCAR-8 ovarian
  TGI: > 100 µM
OVCAR-5 ovarian
  TGI: > 100 µM
HT29 colon
  TGI: > 100 µM
SW-620 colon
  TGI: 92.9 µM
RPMI-8226 leukemia
  TGI: 57.8 µM
MALME-3M melanoma
  TGI: > 100 µM

## Clc1cccc(NC=Nc2ccc(-c3nc4ccccc4s3)cc2)c1
HL-60(TB) leukemia
  GI50: 10.5 µM
  TGI: 27.3 µM
COLO 205 colon
  GI50: 12.2 µM
  TGI: 39.9 µM
CAKI-1 renal
  GI50: 17.8 µM
  TGI: > 50 µM
HOP-92 NSCLC
  GI50: 19.6 µM
  TGI: > 50 µM
OVCAR-8 ovarian
  GI50: 13.1 µM
  TGI: 30.6 µM
OVCAR-5 ovarian
  GI50: 23.6 µM
  TGI: > 50 µM
SW-620 colon
  GI50: 16.7 µM
  TGI: > 50 µM
RPMI-8226 leukemia
  GI50: 14.4 µM
  TGI: > 50 µM

## NC1(CCCCCCCCCCC(=O)O)CNCCNCCNCCNC1
HL-60(TB) leukemia
  TGI: 47.5 µM
COLO 205 colon
  TGI: > 100 µM
CAKI-1 renal
  TGI: > 100 µM
OVCAR-8 ovarian
  TGI: > 100 µM
OVCAR-5 ovarian
  TGI: 45.6 µM
HT29 colon
  TGI: > 100 µM
SW-620 colon
  TGI: > 100 µM
RPMI-8226 leukemia
  TGI: > 100 µM
MALME-3M melanoma
  TGI: > 100 µM

## C[C@]12CCC(=O)C=C1CC[C@@H]1C2CC[C@]2(C)NC(=O)C(C#N)CC12 (stereo partly specified)
HL-60(TB) leukemia
  TGI: > 100 µM
CAKI-1 renal
  TGI: > 100 µM
OVCAR-8 ovarian
  TGI: > 100 µM
OVCAR-5 ovarian
  TGI: > 100 µM
HT29 colon
  TGI: > 100 µM
SW-620 colon
  TGI: > 100 µM
RPMI-8226 leukemia
  TGI: > 100 µM
MALME-3M melanoma
  TGI: > 100 µM

## O=C(O)Cc1c[nH]c2ccc(F)cc12
HL-60(TB) leukemia
  TGI: > 100 µM
COLO 205 colon
  TGI: > 100 µM
CAKI-1 renal
  TGI: > 100 µM
HOP-92 NSCLC
  TGI: > 100 µM
OVCAR-8 ovarian
  TGI: > 100 µM
OVCAR-5 ovarian
  TGI: > 100 µM
HT29 colon
  TGI: > 100 µM
SW-620 colon
  TGI: > 100 µM
RPMI-8226 leukemia
  TGI: > 100 µM

## O=C1CSC(N2CCN(c3cccc(Cl)c3)CC2)=N1
HL-60(TB) leukemia
  GI50: > 100 µM
  TGI: > 100 µM
COLO 205 colon
  GI50: > 100 µM
  TGI: > 100 µM
CAKI-1 renal
  GI50: > 100 µM
  TGI: > 100 µM
OVCAR-8 ovarian
  GI50: > 100 µM
  TGI: > 100 µM
OVCAR-5 ovarian
  GI50: > 100 µM
  TGI: > 100 µM
HT29 colon
  GI50: 46 µM
  TGI: > 100 µM
SW-620 colon
  GI50: > 100 µM
  TGI: > 100 µM
RPMI-8226 leukemia
  GI50: > 100 µM
  TGI: > 100 µM
MALME-3M melanoma
  GI50: > 100 µM
  TGI: > 100 µM

## O=C(N/N=C/c1cccc(O)c1O)N/N=C/c1cccc(O)c1O
COLO 205 colon
  TGI: > 100 µM
HOP-92 NSCLC
  TGI: 77.9 µM
OVCAR-8 ovarian
  TGI: > 100 µM
OVCAR-5 ovarian
  TGI: 59 µM
HT29 colon
  TGI: > 100 µM
SW-620 colon
  TGI: > 100 µM
RPMI-8226 leukemia
  TGI: 76.8 µM
MALME-3M melanoma
  TGI: 74.4 µM

## O=C1CCC(NC(=O)c2ccccc2)C(=O)N1 (stereo unspecified)
COLO 205 colon
  TGI: > 100 µM
CAKI-1 renal
  TGI: > 100 µM
HOP-92 NSCLC
  TGI: > 100 µM
OVCAR-8 ovarian
  TGI: > 100 µM
OVCAR-5 ovarian
  TGI: > 100 µM
HT29 colon
  TGI: > 100 µM
SW-620 colon
  TGI: > 100 µM
RPMI-8226 leukemia
  TGI: > 100 µM
MALME-3M melanoma
  TGI: > 100 µM
